In this assay the test system is P388 leukemia ip, CD2F1 mice, survival T/C. The assay is described as follows: NCI In Vivo Anticancer Drug Screen. Data for tumor model P388 Leukemia (intraperitoneal) in CD2F1 (CDF1) mice. To be noted: endpoint: median survival time, higher = longer survival. Summed up: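 Mice carrying the transplanted tumor received test compound or vehicle. Survival was recorded in each group, and the value is the treated-group measurement divided by that of the vehicle-treated control group.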

The mark [1] stands for this setting: dose: 6.25 mg/kg/injection, schedule: Q01DX005 (ip), vehicle: Klucel (hydroxypropylcellulose) (HPC).
The mark [2] stands for this setting: dose: 12.5 mg/kg/injection, schedule: Q01DX005 (ip), vehicle: Klucel (hydroxypropylcellulose) (HPC).
Where [3] appears, read: dose: 25.0 mg/kg/injection, schedule: Q01DX005 (ip), vehicle: Klucel (hydroxypropylcellulose) (HPC).
Setting [4] is: dose: 50.0 mg/kg/injection, schedule: Q01DX009 (ip), vehicle: Klucel (hydroxypropylcellulose) (HPC).
Setting [5] is: dose: 100.0 mg/kg/injection, schedule: Q01DX009 (ip), vehicle: Klucel (hydroxypropylcellulose) (HPC).
[6] abbreviates: dose: 200.0 mg/kg/injection, schedule: Q01DX009 (ip), vehicle: Klucel (hydroxypropylcellulose) (HPC).
[7] abbreviates: dose: 25.0 mg/kg/injection, schedule: Q01DX009 (ip), vehicle: saline with Tween-80.
Where [8] appears, read: dose: 50.0 mg/kg/injection, schedule: Q01DX009 (ip), vehicle: saline with Tween-80.
Where [9] appears, read: dose: 50.0 mg/kg/injection, schedule: Q01DX005 (ip), vehicle: Klucel (hydroxypropylcellulose) (HPC).
[10] abbreviates: dose: 100.0 mg/kg/injection, schedule: Q01DX005 (ip), vehicle: Klucel (hydroxypropylcellulose) (HPC).
The mark [11] stands for this setting: dose: 200.0 mg/kg/injection, schedule: Q01DX005 (ip), vehicle: Klucel (hydroxypropylcellulose) (HPC).
Where [12] appears, read: dose: 100.0 mg/kg/injection, schedule: Q04DX003 (ip), vehicle: saline with Tween-80.
The mark [13] stands for this setting: dose: 200.0 mg/kg/injection, schedule: Q04DX003 (ip), vehicle: saline with Tween-80.
The mark [14] stands for this setting: dose: 25.0 mg/kg/injection, schedule: Q01DX009 (ip), vehicle: Klucel (hydroxypropylcellulose) (HPC).

Where “and” joins values, the source holds several entries; their conditions need not be identical. Equal entries are not always repeated. Inconclusive results and toxic doses are left out.

On to `CCCCCCC(O)CCCCCCCCCCC(N)=O` (stereo unspecified), for which the T/C under setting [1] is 99 % of control, the T/C under setting [2] was 96 % of control and the T/C under setting [3] is 94 % of control.
Turning to `COC(=O)c1cc(NS(=O)(=O)N(C)C)cc(C(=O)OC)c1`, the T/C under setting [4] was 103 % of control, the T/C under setting [5] was 103 % of control and the T/C under setting [6] is 103 % of control.
For `CSC1C(=O)Nc2ccc([N+](=O)[O-])cc21` (stereo unspecified), the T/C runs as follows: under setting [7], 96 % of control; under setting [8], 105 % of control; (dose: 100.0 mg/kg/injection, schedule: Q01DX009 (ip), vehicle: saline with Tween-80) 113 % of control.
Turning to `O=C1c2cccc3cccc(c23)C(=O)N1CCO`, the T/C runs as follows: (dose: 50.0 mg/kg/injection, schedule: Q01DX005 (ip), vehicle: saline with Tween-80) 104 % of control; (dose: 100.0 mg/kg/injection, schedule: Q01DX005 (ip), vehicle: saline with Tween-80) 96 % of control; (dose: 200.0 mg/kg/injection, schedule: Q01DX005 (ip), vehicle: saline with Tween-80) 100 % of control.
`CCN(CC)c1ccc(Cc2ccc(N(CC)CC)c3cccnc23)c2ncccc12`: the T/C under setting [9] was 100 % of control, the T/C under setting [10] is 99 % of control and the T/C under setting [11] was 98 % of control.
Turning to `Cc1cccc(C)c1NC(=S)N1CCC(CCCC2CCN(C(=S)Nc3c(C)cccc3C)CC2)CC1`, the T/C is 86 % of control under setting [12] and 86 % of control under setting [13].
Take `Cc1s/c(=N/N=C2\C(=O)C=Cc3ccccc32)n(O)c1C`: the T/C is 99 % of control under setting [4], 108 % of control under setting [5] and 111 % of control under setting [6].
Regarding `CC(C)C12C=CC(C)(CC1)OO2` (stereo unspecified), the T/C reads like this: under setting [7], 104 % of control; under setting [8], 100 % of control and 102 % of control.
With `CCOP(=O)(CSCCC1(C)NC(=O)NC1=O)OCC` (stereo unspecified), the T/C (dose: 60.0 mg/kg/injection, schedule: Q01DX005 (ip), vehicle: saline) was 102 % of control; the T/C (dose: 120.0 mg/kg/injection, schedule: Q01DX005 (ip), vehicle: saline) was 103 % of control; the T/C (dose: 240.0 mg/kg/injection, schedule: Q01DX005 (ip), vehicle: saline) is 102 % of control.
For `Cc1c(N)nc(C(CC(N)=O)NCC(N)C(N)=O)nc1C(=O)NC(C(=O)NC(C)C(O)C(C)C(=O)NC(C(=O)NCCc1nc(-c2nc(C(=O)NCCCNCCCc3ccccn3)cs2)cs1)C(C)O)C(OC1OC(CO)C(O)C(O)C1OC1OC(CO)C(O)C(OC(N)=O)C1O)c1cnc[nH]1` (stereo unspecified), the T/C (dose: 0.25 mg/kg/injection, schedule: Q01DX009 (ip), vehicle: water) is 110 % of control; the T/C (dose: 0.5 mg/kg/injection, schedule: Q01DX009 (ip), vehicle: water) was 104 % of control; the T/C (dose: 1.0 mg/kg/injection, schedule: Q01DX009 (ip), vehicle: water) is 111 % of control; the T/C (dose: 2.0 mg/kg/injection, schedule: Q01DX009 (ip), vehicle: water) was 101 % of control; the T/C (dose: 4.0 mg/kg/injection, schedule: Q01DX009 (ip), vehicle: saline) was 104 % of control; the T/C (dose: 8.0 mg/kg/injection, schedule: Q01DX009 (ip), vehicle: saline) is 104 % of control. The T/C runs as follows: (dose: 16.0 mg/kg/injection, schedule: Q01DX009 (ip), vehicle: saline) 112 % of control; (dose: 32.0 mg/kg/injection, schedule: Q01DX009 (ip), vehicle: saline) 105 % of control.
Consider `CC(=O)OC1CCC2(C)C(CCC3C2CCC2(C)C3CC(CC(=O)O)C2OC(C)=O)C1` (stereo unspecified), for which the T/C under setting [14] is 92 % of control, the T/C under setting [4] is 92 % of control, the T/C under setting [5] was 93 % of control and the T/C under setting [6] was 97 % of control.
Turning to `O=[N+]([O-])c1ccc(CSSCc2ccc([N+](=O)[O-])cc2)cc1`, the T/C is, setting by setting: under setting [9], 98 % of control; under setting [10], 100 % of control; under setting [11], 105 % of control.
As for `Nc1nncc(-c2ccccc2)n1`, the T/C reads like this: under setting [14], 97 % of control; under setting [4], 97 % of control; under setting [5], 96 % of control; under setting [6], 110 % of control.
As to `CCOC(=O)CC(Cc1cc(OC)ccc1OC)(C(C)=O)C(C)=O`, the T/C is 100 % of control (dose: 25.0 mg/kg/injection, schedule: Q01DX009 (ip), vehicle: other); 100 % of control (dose: 50.0 mg/kg/injection, schedule: Q01DX009 (ip), vehicle: other); 100 % of control (dose: 100.0 mg/kg/injection, schedule: Q01DX009 (ip), vehicle: other); 98 % of control (dose: 200.0 mg/kg/injection, schedule: Q01DX009 (ip), vehicle: other); 100 % of control (dose: 400.0 mg/kg/injection, schedule: Q01DX009 (ip), vehicle: other).
For `CCc1ncnc2cc(OCC3CO3)c(OC)cc12` (stereo unspecified), the T/C was 114 % of control (dose: 6.25 mg/kg/injection, schedule: Q01DX005 (ip), vehicle: saline); 155 % of control and 158 % of control (dose: 25.0 mg/kg/injection, schedule: Q01DX005 (ip), vehicle: saline); 154 % of control and 158 % of control and 182 % of control (dose: 50.0 mg/kg/injection, schedule: Q01DX005 (ip), vehicle: saline).
`COc1ccc2[nH]c3c(C)c4cc[n+](CCCCCCCC[n+]5ccc6c(C)c7[nH]c8ccc(OC)cc8c7c(C)c6c5)cc4c(C)c3c2c1`: the T/C runs as follows: (dose: 0.78 mg/kg/injection, schedule: Q04DX003 (ip), vehicle: other) 117 % of control; (dose: 25.0 mg/kg/injection, schedule: Q04DX003 (ip), vehicle: other) 122 % of control; (dose: 50.0 mg/kg/injection, schedule: Q04DX003 (ip), vehicle: other) 119 % of control.
With `CN=C(NC)c1ccc(NC(=O)c2cc(OC)cc(C(=O)Nc3ccc(C(=NC)NC)cc3)c2)cc1`, the T/C is, setting by setting: under setting [1], 100 % of control; under setting [2], 110 % of control; under setting [3], 110 % of control.
On to `NC(CCCCNC(=O)CCCCCCCCC(=O)NCCCCC(N)C(=O)O)C(=O)O` (stereo unspecified), for which the T/C is 95 % of control (dose: 50.0 mg/kg/injection, schedule: Q01DX009 (ip), vehicle: suspension in saline); 105 % of control (dose: 100.0 mg/kg/injection, schedule: Q01DX009 (ip), vehicle: suspension in saline); 100 % of control (dose: 200.0 mg/kg/injection, schedule: Q01DX009 (ip), vehicle: suspension in saline).
On to `COc1ccc(/C(C)=N/OC(=O)c2sc3ccccc3c2Cl)cc1CN1CCOCC1`, for which the T/C was 93 % of control (dose: 50.0 mg/kg/injection, schedule: Q01DX009 (ip), vehicle: saline); 97 % of control (dose: 100.0 mg/kg/injection, schedule: Q01DX009 (ip), vehicle: saline); 100 % of control (dose: 200.0 mg/kg/injection, schedule: Q01DX009 (ip), vehicle: saline).
On to `CCCCCCCCCCCCCCCCCC(=O)[O][Pb]([CH3])([CH3])[CH3]`, for which the T/C is, setting by setting: (dose: 1.25 mg/kg/injection, schedule: Q01DX009 (ip), vehicle: Klucel (hydroxypropylcellulose) (HPC)) 107 % of control; (dose: 2.5 mg/kg/injection, schedule: Q01DX009 (ip), vehicle: Klucel (hydroxypropylcellulose) (HPC)) 113 % of control; (dose: 5.0 mg/kg/injection, schedule: Q01DX009 (ip), vehicle: Klucel (hydroxypropylcellulose) (HPC)) 101 % of control; (dose: 6.25 mg/kg/injection, schedule: Q04DX003 (ip), vehicle: Klucel (hydroxypropylcellulose) (HPC)) 94 % of control; (dose: 12.5 mg/kg/injection, schedule: Q04DX003 (ip), vehicle: Klucel (hydroxypropylcellulose) (HPC)) 111 % of control; (dose: 25.0 mg/kg/injection, schedule: Q04DX003 (ip), vehicle: Klucel (hydroxypropylcellulose) (HPC)) 92 % of control.
Turning to `CSc1nc(N)c(I)c(Cl)n1`, the T/C (dose: 50.0 mg/kg/injection, schedule: Q04DX003 (ip), vehicle: saline with Tween-80) was 100 % of control; the T/C (dose: 100.0 mg/kg/injection, schedule: Q01DX001 (ip), vehicle: saline) was 110 % of control; the T/C under setting [12] is 102 % of control; the T/C (dose: 200.0 mg/kg/injection, schedule: Q01DX001 (ip), vehicle: saline) is 113 % of control; the T/C under setting [13] is 93 % of control; the T/C (dose: 400.0 mg/kg/injection, schedule: Q01DX001 (ip), vehicle: saline) was 110 % of control.
